Where a name gives a salt, the structure may show the parent alone. Some results are limits rather than exact numbers.

The melting point is the temperature, or range, at which the solid turns liquid. As to `NCC1(c2cccs2)C2CC3CC(C2)CC1C3` (stereo not shown) (as salt: hydrochloride) [Example 10, 2-(2-Thienyl)-2-adamantanemethanamine hydrochloride], the melting point fell in the range of 255 to 257 °C.
The same measure for `Cc1ccc(C2(CN)C3CC4CC(C3)CC2C4)cc1` (stereo not shown) (as salt: hydrochloride) [Example 4, 2-(4-Methylphenyl)-2-adamantanemethanamine hydrochloride]: 261 to 263 °C.
The compound `CCc1cccc(C2(CN)C3CC4CC(C3)CC2C4)c1` (stereo not shown) (as salt: hydrochloride) [Example 1, 2-(3-Ethylphenyl)-2-adamantanemethanamine hydrochloride] had a melting point of 89 to 90 °C.
Then `NCC1(c2ccccc2)C2CC3CC(C2)CC1C3` (stereo not shown) (as salt: hydrochloride) [Example 3, 2-Phenyl-2-adamantanemethanamine hydrochloride], with 253 to 255 °C; and `COc1ccc(C2(CN)C3CC4CC(C3)CC2C4)cc1` (stereo not shown) (as salt: hydrochloride) [Example 8, 2-(4-Methoxyphenyl)-2-adamantanemethanamine hydrochloride], with 234 to 235 °C; and `NCC1(c2ccc(Cl)cc2)C2CC3CC(C2)CC1C3` (stereo not shown) (as salt: hydrochloride) [Example 7, 2-(4-Chlorophenyl)-2-adamantanemethanamine hydrochloride], with above 300 °C.
Then `Cc1ccccc1C1(CN)C2CC3CC(C2)CC1C3` (stereo not shown) (as salt: hydrochloride), with 270 to 271 °C; and `NCC1(c2ccc(F)cc2)C2CC3CC(C2)CC1C3` (stereo not shown) (as salt: hydrochloride) [Example 6, 2-(4-Fluorophenyl)-2-adamantanemethanamine hydrochloride], with 262 to 263 °C.
In turn, `NCC1(c2ccc(C(F)(F)F)cc2)C2CC3CC(C2)CC1C3` (stereo not shown) (as salt: hydrochloride) [Example 9, 2-(4-Trifluoromethylphenyl)-2-adamantanemethanamine hydrochloride] yielded a melting point of 279 to 281 °C.
Consider `Cc1cccc(C2(CN)C3CC4CC(C3)CC2C4)c1` (stereo not shown) (as salt: hydrochloride) [Example 2, 2-(3-Methylphenyl)-2-adamantanemethanamine hydrochloride], for which the melting point lay within 242 to 243 °C.

The record behind these values is patent US6531511B1, “2-adamantanemethanamine compounds for treating abnormalities in glutamatergic transmission” (Vernalis Research Limited, priority 1999, dated 2003).
